We go through eight molecules from patent US20240374598A1, “INHIBITORS OF HUMAN IMMUNODEFICIENCY VIRUS REPLICATION” (ViiV HEALTHCARE UK (NO.5) LIMITED, priority 2018, published 2024).

A short description of series [1]: Compound cytotoxicity, XTT-based colorimetric assay. It is filed as cell-based. Particulars: human; uninfected MT2 cells, day 4, XTT assay. As to the method: Compound cytotoxicity and the corresponding CC50 values were determined using the same protocol as described in the antiviral assay except that uninfected cells were used. Cytotoxicity was assessed on day 4 in uninfected MT2 cells by using a XTT (2,3-bis[2-Methoxy-4-nitro-5-sulfophenyl]-2H-tetrazolium-5-carboxyanilide inner salt)-based colorimetric assay (Sigma-Aldrich, St Louis, Mo).
On the technique in general: Tetrazolium dyes change colour on reduction, which living cells bring about.

Series [2] concerns recombinant NL4-3 virus (nef section replaced with Renilla luciferase gene) in MT-2 cells. Nature of the series: HIV cell culture assay (antiviral activity, luciferase readout). It is filed as cell-based. The following applies: NL43, MT-2 cells infected for 4-5 days with recombinant NL4-3 Renilla luciferase virus. In a few lines:
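MT-2 cells were infected for 4–5 days with NL4-3 reporter virus carrying Renilla luciferase in place of part of nef, in the presence of serially diluted compound. Luciferase activity, read with a live-cell substrate, gave percent inhibition; EC50 derived from the median effect equation.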

`COc1ccc2c(=O)n(-c3ccc(Cl)c4c(NS(C)(=O)=O)nn(C)c34)c([C@H](Cc3cc(F)cc(F)c3)NC(=O)Cn3ccc(C4CC4)n3)nc2n1` [Example 36, (S)—N-(1-(3-(4-chloro-1-methyl-3-(methylsulfonamido)-1H-indazol-7-yl)-7-methoxy-4-oxo-3,4-dihydropyrido[2,3-d]pyrimidin-2-yl)-2-(3,5-difluorophenyl)ethyl)-2-(3-cyclopropyl-1H-pyrazol-1-yl)acetamide]: the CC50 (in general, the concentration that lowers cell viability or growth by half) at 4 day in series [1] is above 1000 nM. Also, the EC50 (usually the concentration giving half of the maximal effect) in series [2] amounted to 0.131 nM.

The molecule `CC(C)Oc1ccc2c(=O)n(-c3ccc(Cl)c4c(NS(C)(=O)=O)nn(C)c34)c([C@H](Cc3cc(F)cc(F)c3)NC(=O)Cn3nc(C(F)F)c4c3C(F)(F)[C@@H]3C[C@H]43)nc2c1` [Example 10, N—((S)-1-(3-(4-chloro-1-methyl-3-(methylsulfonamido)-1H-indazol-7-yl)-7-isopropoxy-4-oxo-3,4-dihydroquinazolin-2-yl)-2-(3,5-difluorophenyl)ethyl)-2-((3bS,4aR)-3-(difluoromethyl)-5,5-difluoro-3b,4,4a,5-tetrahydro-1H-cyclopropa[3,4]cyclopenta[1,2-c]pyrazol-1-yl)acetamide] had a CC50 at 4 day in series [1] above 1000 nM. The EC50 in series [2] amounted to 0.107 nM.

`Cn1nc(NS(C)(=O)=O)c2c(Cl)ccc(-n3c([C@H](Cc4cc(F)cc(F)c4)NC(=O)Cn4nc(C(F)F)c5c4C(F)(F)[C@@H]4C[C@H]54)nc4cc(Br)ccc4c3=O)c21` [Example 1, N—((S)-1-(7-bromo-3-(4-chloro-1-methyl-3-(methylsulfonamido)-1H-indazol-7-yl)-4-oxo-3,4-dihydroquinazolin-2-yl)-2-(3,5-difluorophenyl)ethyl)-2-((3bS,4aR)-3-(difluoromethyl)-5,5-difluoro-3b,4,4a,5-tetrahydro-1H-cyclopropa[3,4]cyclopenta[1,2-c]pyrazol-1-yl)acetamide] had a CC50 at 4 day in series [1] above 1000 nM. Further, in series [2], the EC50 amounted to 0.046 nM.

In the case of `Cn1nc(NS(C)(=O)=O)c2c(Cl)ccc(-n3c([C@H](Cc4cc(F)cc(F)c4)NC(=O)Cn4nc(C(F)F)c5c4C(F)(F)[C@@H]4C[C@H]54)nc4cc(OCCCF)ccc4c3=O)c21` [Example 9, N—((S)-1-(3-(4-chloro-1-methyl-3-(methylsulfonamido)-1H-indazol-7-yl)-7-(3-fluoropropoxy)-4-oxo-3,4-dihydroquinazolin-2-yl)-2-(3,5-difluorophenyl)ethyl)-2-((3bS,4aR)-3-(difluoromethyl)-5,5-difluoro-3b,4,4a,5-tetrahydro-1H-cyclopropa[3,4]cyclopenta[1,2-c]pyrazol-1-yl)acetamide], the CC50 at 4 day in series [1] was above 1000 nM. Moreover, the EC50 in series [2] came to 0.049 nM.

Regarding `Cn1nc(NS(C)(=O)=O)c2c(Cl)ccc(-n3c([C@H](Cc4cc(F)cc(F)c4)NC(=O)Cn4nc(C(F)F)c5c4C(F)(F)[C@@H]4C[C@H]54)nc4cc(C5CCCC5)ccc4c3=O)c21` [Example 32, N—((S)-1-(3-(4-chloro-1-methyl-3-(methylsulfonamido)-1H-indazol-7-yl)-7-cyclopentyl-4-oxo-3,4-dihydroquinazolin-2-yl)-2-(3,5-difluorophenyl)ethyl)-2-((3bS,4aR)-3-(difluoromethyl)-5,5-difluoro-3b,4,4a,5-tetrahydro-1H-cyclopropa[3,4]cyclopenta[1,2-c]pyrazol-1-yl)acetamide], the CC50 at 4 day in series [1] was above 1000 nM. Further, in series [2], the EC50 was determined as 0.285 nM.

In turn, `CCCc1ccc2c(=O)n(-c3ccc(Cl)c4c(NS(C)(=O)=O)nn(C)c34)c([C@H](Cc3cc(F)cc(F)c3)NC(=O)Cn3nc(C(F)F)c4c3C(F)(F)[C@@H]3C[C@H]43)nc2c1` [Example 19, N—((S)-1-(3-(4-chloro-1-methyl-3-(methylsulfonamido)-1H-indazol-7-yl)-4-oxo-7-propyl-3,4-dihydroquinazolin-2-yl)-2-(3,5-difluorophenyl)ethyl)-2-((3bS,4aR)-3-(difluoromethyl)-5,5-difluoro-3b,4,4a,5-tetrahydro-1H-cyclopropa[3,4]cyclopenta[1,2-c]pyrazol-1-yl)acetamide] had a CC50 at 4 day in series [1] above 1000 nM. Moreover, the half-maximal effective concentration (EC50) in series [2] was found to be 0.063 nM.

For the molecule `Cc1ccc2c(=O)n(-c3ccc(Cl)c4c(NS(C)(=O)=O)nn(C)c34)c([C@H](Cc3cc(F)cc(F)c3)NC(=O)Cn3nc(C(F)F)c4c3C(F)(F)[C@@H]3C[C@H]43)nc2c1` [Example 15, N—((S)-1-(3-(4-chloro-1-methyl-3-(methylsulfonamido)-1H-indazol-7-yl)-7-methyl-4-oxo-3,4-dihydroquinazolin-2-yl)-2-(3,5-difluorophenyl)ethyl)-2-((3bS,4aR)-3-(difluoromethyl)-5,5-difluoro-3b,4,4a,5-tetrahydro-1H-cyclopropa[3,4]cyclopenta[1,2-c]pyrazol-1-yl)acetamide], in series [1], the CC50 at 4 day was above 1000 nM. Further, the EC50 in series [2] amounted to 0.071 nM.

In series [1], `CS(=O)(=O)Nc1nn(CC(F)F)c2c(-n3c([C@H](Cc4cc(F)cc(F)c4)NC(=O)Cn4nc(C(F)F)c5c4C(F)(F)[C@@H]4C[C@H]54)nc4cc(CCC(F)(F)F)ccc4c3=O)ccc(Cl)c12` [Example 23, N—((S)-1-(3-(4-chloro-1-(2,2-difluoroethyl)-3-(methylsulfonamido)-1H-indazol-7-yl)-4-oxo-7-(3,3,3-trifluoropropyl)-3,4-dihydroquinazolin-2-yl)-2-(3,5-difluorophenyl)ethyl)-2-((3bS,4aR)-3-(difluoromethyl)-5,5-difluoro-3b,4,4a,5-tetrahydro-1H-cyclopropa[3,4]cyclopenta[1,2-c]pyrazol-1-yl)acetamide] returned a half-maximal cytotoxic concentration (CC50) at 4 day above 1000 nM. Besides, the EC50 in series [2] was 0.094 nM.
